Laboratory results reported in patent US4011221A, “S-Inosylcysteine and a process for producing the same” (Funai Pharmaceutical Industries, Ltd., priority 1974, dated 1977).

Assays:
[1] = test system: chick embryo heart cells; assay: Effect on proliferation of chick embryo heart cells in the presence of a growth inhibitor, KCN (Experiments 3 and 4); format: cell-based; conditions: for activity at 50 µg/mL / activity at 20 µg/mL: Gallus gallus; for activity at 20 µg/mL: 24 h
Protocol: After washing with calcium and magnesium-free phosphate buffered saline (PBS), the pieces of hearts were treated with a solution of 0.1% trypsin in PBS freed from calcium and magnesium ions, and the supernatant fraction was discarded. The residue was treated with a solution of 0.1% trypsin in PBS freed from calcium and magnesium ions, and the supernatant fractions containing isolated cells were collected. The procedure was repeated 3 times. The supernatant fractions were combined and diluted with cold culture medium containing 10% fetal calf serum, sodium penicillin G (100 units per ml) and sulfate streptomycin (1 μg per ml), and centrifuged at 150 xG. […] One ml of the suspension was poured into each of 28 culture tubes which were equally divided into 7 groups. The cells were cultured at 37° C in an incubator. After 1 day of incubation the culture medium of the tubes was removed and 1 ml of each culture medium containing compound shown in Table I was added thereto. After additional 3 days of incubation the culture medium was removed and the cells were then treated with 1 ml of 0.1 M citric acid containing 0.1% crystal violet. The number of cells was counted with a hemocytometer in quadruplicate after vigorous shaking. […] After 3 days of incubation, the culture medium was removed and 1 ml of each culture medium containing compounds shown in Table II was added thereto. After an additional 1 day of incubation the number of cells was counted. […] Method: The culture procedure for chick embryo heart cells was employed as described in Experiment 1. After one day of incubation, the culture medium was removed and 1 ml of each culture medium containing KCN (1.7 μg per ml) and compounds shown in Table III were added thereto.

[2] = test system: chick embryo heart cells; assay: Effect on proliferation of chick embryo heart cells (Experiments 1 and 2); format: cell-based; conditions: for Cell number + S.E. / activity at 50 µg/mL: Experiment 1, 50 μg/ml; for Cell number + S.E.: 3 days incubation; for activity at 50 µg/mL / activity at 20 µg/mL: Gallus gallus, control = 100.0; for activity at 50 µg/mL: 72 h, read-out: Growth rate %; for Cell number ± S.E. / activity at 20 µg/mL: Experiment 2, 20 μg/ml; for Cell number ± S.E.: 1 day with compound after 3 days of incubation; for activity at 20 µg/mL: 24 h, read-out: Growth rate (%); for cell-proliferating activity (in words): summary statement, Tables I to V
Protocol: A. Effect of S-inosylcysteine on proliferation of chick embryo heart cells.
(§1) Method: The hearts excised from 13-day-old chick embryos were cut into pieces 1 to 2 mm in diameter under sterile conditions. After washing with calcium and magnesium-free phosphate buffered saline (PBS), the pieces of hearts were treated with a solution of 0.1% trypsin in PBS freed from calcium and magnesium ions, and the supernatant fraction was discarded. The residue was treated with a solution of 0.1% trypsin in PBS freed from calcium and magnesium ions, and the supernatant fractions containing isolated cells were collected. The procedure was repeated 3 times. The supernatant fractions were combined and diluted with cold culture medium containing 10% fetal calf serum, sodium penicillin G (100 units per ml) and sulfate streptomycin (1 μg per ml), and centrifuged at 150 xG. The resulting pellet was washed twice with the culture medium and diluted cautiously with the same culture medium to give a suspension which contains 200,000 cells per ml. One ml of the suspension was poured into each of 28 culture tubes which were equally divided into 7 groups. The cells were cultured at 37° C in an incubator. After 1 day of incubation the culture medium of the tubes was removed and 1 ml of each culture medium containing compound shown in Table I was added thereto. After additional 3 days of incubation the culture medium was removed and the cells were then treated with 1 ml of 0.1 M citric acid containing 0.1% crystal violet. The number of cells was counted with a hemocytometer in quadruplicate after vigorous shaking.
(§2) Method: The culture procedure for chick embryo heart cells was employed as described in Experiment 1. After 3 days of incubation, the culture medium was removed and 1 ml of each culture medium containing compounds shown in Table II was added thereto. After an additional 1 day of incubation the number of cells was counted.

[3] = test system: pylorus ligation ulcer; assay: Effect on pylorus ligation ulcer in rats (Experiments 6 and 7); format: in vivo, Male Wister rats; conditions: for anti-ulcer activity (in words): summary statement, Tables VI to VIII
Protocol: a. Effect of S-inosylcysteine on pylorus ligation ulcer.
(§3) Method: Male Wister rats (Keari Gifu-Lab.), aged 7 weeks were used. After fasting for 48 hours, rats weighing 210 to 230 g were divided into 6 groups of 10 rats. The pylorus of stomach was ligated under light anesthesia with pentobarbital sodium (25 mg per kg, i.p.). Immediately after the ligation, a psysiological saline was orally administered to one group and a solution of each tested compound (50 mg per kg) was orally administered to the remaining 5 groups. After these rats were kept without food and water for 10 hours from the ligation, the stomach was removed under anesthesia with pentobarbital sodium (30 mg per kg, i.p.). The gastric contents were aspirated and the stomach was fixed by means of the injection of 10 ml of a 2% formalin solution into the lumen. The stomach was opened along its greater curvature. The severity of the lesion of the rumen, that is, the degree of ulcer was expressed as ulcer index according to the method of Yokotani (Folia pharmacol. Japon. 56, 1373, (1960). The results are shown in Table VI.
*Inhibition rate was calculated as follows: […]
Method: The same method as described in Experiment 6 was employed. The
effect of S-inosyl-L-cysteine
on pylorus ligation ulcer was examined with intramuscular administration.

[4] = test system: chick embryo heart cells; assay: Effect on proliferation of chick embryo heart cells in the presence of 6-mercaptopurine (Experiment 5); format: cell-based; conditions: Experiment 5, 20 μg/ml, 6-mercaptopurine 5 μg per ml; for activity at 20 µg/mL: Gallus gallus, 24 h
Protocol: as §1, §2
Method: Same as in Experiment 2 except that 6-mercaptopurine (5 μg per
ml) was added to each culture

[5] = test system: gastric secretion; assay: Effect on gastric secretion in pylorus-ligated rats; format: in vivo, Male Wister rats; conditions: 50 mg/kg, p.o., 5 hours from ligation
Protocol: as §3
b. Effect of S-inosylcysteine on gastric secretion. Method: The rats were ligated in the same manner as in Experiment 6, and divided into 2 groups of 10 rats. Immediately after the ligation, a physiological saline or a solution of S-inosyl-L-cysteine was orally administered. After the rats were kept without food and water for 5 hours from the ligation, the esophagus was ligated and the stomach was removed under anesthesia with pentobarbital sodium (30 mg per kg. i.p.). The gastric contents were collected and centrifuged at 2,000 rpm for 10 minutes. The volume of supernatant was measured and its pH was determined with a pH meter (Hitach-Horiba Type M-5). Free-HCl, total-HCl and total-acidity in the supernatant were determined by the titration with 1/50 N NaOH using Topfer's solution and phenolphtalein solution as an indicator.

[6] = Experiment 3, 50 μg/ml, KCN 1.7 μg per ml
[7] = Experiment 3, 50 μg/ml, KCN 1.7 μg per ml, KCN control = 100.0, read-out: Growth Rate %
[8] = Experiment 3, 50 μg/ml, KCN 1.7 μg per ml, simultaneous with Experiment 1, read-out: Growth rate (%) with respect to control of Table I
[9] = Experiment 6, 50 mg/kg, p.o., 10 hours from ligation
[10] = its control = 100.0, read-out: Growth Rate (%)
[11] = simultaneous with Experiment 2, read-out: Growth rate (%) with respect to control of Table II
[12] = Experiment 4, 20 μg/ml, KCN 1.7 μg per ml
[13] = Experiment 4, 20 μg/ml, KCN 1.7 μg per ml, KCN control = 100.0, read-out: Growth rate (%)
[14] = Experiment 4, 20 μg/ml, KCN 1.7 μg per ml, simultaneous with Experiment 2, read-out: Growth rate (%) with respect to control of Table II

Compound | Cell number ± S.E. [1, 6] | Cell number + S.E. [2] | activity at 50 µg/mL [2] [%] | activity at 50 µg/mL [1, 7] [%] | activity at 50 µg/mL [1, 8] [%] | Inhibition rate (%) of ulcer ([3]; Experiment 6, 50 mg/kg, p.o.) [%] | Mean ulcer index ± S.E. [3, 9] | Cell number ± S.E. [4] | activity at 20 µg/mL [4, 10] [%] | activity at 20 µg/mL [4, 11] [%] | Cell number ± S.E. [1, 12] | activity at 20 µg/mL [1, 13] [%] | activity at 20 µg/mL [1, 14] [%] | Cell number ± S.E. [2] | activity at 20 µg/mL [2] [%] | further results
Nc1ncnc2c1ncn2[C@@H]1O[C@H](CO)[C@@H](O)[C@H]1O [adenosine] | 33.3 ± 1.9 ×10^4 cells | 44.1 ± 5.6 ×10^4 cells | 86.6 | – | – | – | – | – | – | – | – | – | – | – | – | activity at 50 µg/mL ([1]; read-out: Growth Rate %): 104%; activity at 50 µg/mL ([1]; read-out: Growth rate (%) with respect to control of Table I): 65.4%
N[C@@H](CS)C(=O)O [L-cysteine] | 41.9 ± 6.3 ×10^4 cells | 50.5 ± 1.3 ×10^4 cells | 99.2 | 131 | 82.3 | – | – | – | – | – | – | – | – | – | – | –
N[C@@H](CSC[C@H]1O[C@@H](n2cnc3c(=O)[nH]cnc32)[C@H](O)[C@@H]1O)C(=O)O [S-inosyl-L-cysteine, 5'-S-(2-amino-2-carboxyethyl)-5'-thioinosine] | 50.9 ± 1.5 ×10^4 cells | 65.4 ± 1.6 ×10^4 cells | 128 | 159 | 100 | 42 | 8.1 ± 1.1 | 85.8 ± 2.9 ×10^4 cells | 126 | 105 | 85.6 ± 0.4 ×10^4 cells | 130 | 105 | 97.8 ± 3.8 ×10^4 cells | 120 | Inhibition rate (%) of ulcer ([3]; Experiment 7, 50 mg/kg, i.m.): 59%; Mean ulcer index ± S.E. ([3]; Experiment 7, 50 mg/kg, i.m.): 5.1 ± 1.6; anti-ulcer activity (in words) ([3]; listed as S-inosyl cysteine): superior to those of known related compounds (7) to (10); anti-ulcer activity (in words) ([3]; listed as S-inosylsteine): excellent; Free-HCl, inhibition rate % [5]: 36%; Total-HCl, inhibition rate (%) [5]: 23%; Total-acidity [5]: 83.2 mEq/l; Total-acidity, inhibition rate (%) [5]: 22%; Volume, inhibition rate (%) [5]: 38%; pH (gastric contents supernatant) [5]: 1.50 ± 0.06; Free-HCl ([5]; ± S.E.): 42.8 ± 6.0 mEq/l; Total-HCl ([5]; ± S.E.): 73.8 ± 6.4 mEq/l; Volume (gastric contents supernatant) ([5]; ± S.E.): 5.3 ± 0.5 mL; cell-proliferating activity (in words) ([2]; listed as S-inosycysteine): superior to those of known related compounds (2) to (10); cell-proliferating activity (in words) ([2]; listed as S-inosylcysteine): remarkable; cell-proliferating activity (in words) ([2]; listed as S-inosylsteine): excellent
Nc1ncnc2c1ncn2[C@@H]1O[C@H](CSCC[C@H](N)C(=O)O)[C@@H](O)[C@H]1O [S-adenosyl-L-homocysteine] | – | – | – | – | – | 19 | 11.3 ± 0.7 | 75.7 ± 1.6 ×10^4 cells | 111 | 92.8 | 65.2 ± 1.8 ×10^4 cells | 99.1 | 79.9 | 71.5 ± 3.4 ×10^4 cells | 87.6 | –
